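Method: 48-hour compound exposure of cells in 96-well plates, five concentrations, linear interpolation of endpoints. Here, GI50 denotes the concentration required for 50% inhibition of growth. TGI: total growth inhibition.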
How the values were obtained:
Assay in all cases: NCI tumour cell line growth inhibition, 48 h
A549 NSCLC = test system: A549 NSCLC
HS 578T breast = test system: HS 578T breast
M14 melanoma = test system: M14 melanoma
MALME-3M melanoma = test system: MALME-3M melanoma
MDA-MB-231 breast = test system: MDA-MB-231 breast
NCI-H23 lung = test system: NCI-H23 lung
OVCAR-5 ovarian = test system: OVCAR-5 ovarian
SNB-75 CNS = test system: SNB-75 CNS
U251 CNS = test system: U251 CNS
UO-31 renal = test system: UO-31 renal

## CCOC(=O)N1CCN(C(=O)c2ccc(C(F)(F)F)nc2Nc2cc(Cl)ccc2C)CC1
A549 NSCLC
  GI50: 14.8 µM
  TGI: > 100 µM
HS 578T breast
  GI50: 23.9 µM
  TGI: 91.2 µM
M14 melanoma
  GI50: 23.7 µM
  TGI: > 100 µM
MALME-3M melanoma
  GI50: 12 µM
  TGI: 41 µM
MDA-MB-231 breast
  GI50: 5.22 µM
  TGI: 21.9 µM
NCI-H23 lung
  GI50: 14.1 µM
  TGI: 74.5 µM
OVCAR-5 ovarian
  GI50: 39.4 µM
  TGI: > 100 µM
SNB-75 CNS
  GI50: 1.41 µM
  TGI: 24.1 µM
U251 CNS
  GI50: 27.1 µM
  TGI: > 100 µM
UO-31 renal
  GI50: 7.82 µM
  TGI: > 100 µM

## Cc1ccc(Nc2nc(N)c(C(=O)c3ccc(C#N)cc3)s2)cc1
A549 NSCLC
  GI50: 0.739 µM
  TGI: > 76.6 µM
HS 578T breast
  GI50: 0.546 µM
  TGI: > 100 µM
M14 melanoma
  GI50: 0.308 µM
  TGI: > 100 µM
MALME-3M melanoma
  GI50: 5.25 µM
  TGI: > 100 µM
MDA-MB-231 breast
  GI50: 1.01 µM
  TGI: > 100 µM
NCI-H23 lung
  GI50: 0.743 µM
  TGI: > 100 µM
OVCAR-5 ovarian
  GI50: 2.98 µM
  TGI: > 100 µM
SNB-75 CNS
  GI50: 0.241 µM
  TGI: 8.11 µM
U251 CNS
  GI50: 0.434 µM
  TGI: > 87.3 µM
UO-31 renal
  GI50: 0.644 µM
  TGI: > 100 µM

## O=C(N/N=C\c1cc(Br)ccc1O)c1ccncc1
A549 NSCLC
  GI50: 4.27 µM
  TGI: > 100 µM
HS 578T breast
  GI50: 13.4 µM
  TGI: > 100 µM
M14 melanoma
  GI50: 2.45 µM
  TGI: 26 µM
MALME-3M melanoma
  GI50: 5.76 µM
  TGI: 78.5 µM
MDA-MB-231 breast
  GI50: 5.88 µM
  TGI: > 100 µM
NCI-H23 lung
  GI50: 3.61 µM
  TGI: > 100 µM
OVCAR-5 ovarian
  GI50: 3.76 µM
  TGI: > 100 µM
SNB-75 CNS
  GI50: 4.83 µM
  TGI: 51.1 µM
U251 CNS
  GI50: 1.92 µM
  TGI: 68.8 µM
UO-31 renal
  GI50: 1.76 µM
  TGI: > 100 µM

## Cc1n(Cc2ccc3ccccc3c2)cc[n+]1Cc1ccc2ccccc2c1
A549 NSCLC
  GI50: 3.81 µM
  TGI: 21.3 µM
HS 578T breast
  GI50: 1.6 µM
  TGI: 11.3 µM
M14 melanoma
  GI50: 1.12 µM
  TGI: 3.46 µM
MALME-3M melanoma
  GI50: 0.627 µM
  TGI: 2.56 µM
MDA-MB-231 breast
  GI50: 1.03 µM
  TGI: 2.43 µM
NCI-H23 lung
  GI50: 0.717 µM
  TGI: 2.93 µM
OVCAR-5 ovarian
  GI50: 1.5 µM
  TGI: 5.81 µM
SNB-75 CNS
  GI50: 0.626 µM
  TGI: 6.14 µM
U251 CNS
  GI50: 0.818 µM
  TGI: 7.98 µM
UO-31 renal
  GI50: 9.26 µM
  TGI: 22 µM

## COc1cc(NC(C)CCCN)c2nccc(C)c2c1OC (stereo unspecified)
A549 NSCLC
  GI50: 22.8 µM
  TGI: 58.5 µM
HS 578T breast
  GI50: 8.5 µM
  TGI: 35.4 µM
M14 melanoma
  GI50: 2.97 µM
  TGI: 12.7 µM
MALME-3M melanoma
  GI50: 2.84 µM
  TGI: 9.84 µM
MDA-MB-231 breast
  GI50: 8.18 µM
  TGI: 25.3 µM
NCI-H23 lung
  GI50: 4.21 µM
  TGI: 22 µM
OVCAR-5 ovarian
  GI50: 16.1 µM
  TGI: 42.1 µM
SNB-75 CNS
  GI50: 14.1 µM
  TGI: 29.4 µM
U251 CNS
  GI50: 14.1 µM
  TGI: 27.4 µM
UO-31 renal
  GI50: 17.6 µM
  TGI: 34.4 µM

## CCN(CC)CCNCC(=O)Oc1ccc(/C=C/C(=O)CC(=O)/C=C/c2ccc(OC(=O)CNCCN(CC)CC)c(OC)c2)cc1OC
A549 NSCLC
  GI50: 6.73 µM
  TGI: 39.8 µM
HS 578T breast
  GI50: 3.59 µM
  TGI: 26.4 µM
M14 melanoma
  GI50: 2.82 µM
  TGI: 11 µM
MALME-3M melanoma
  GI50: 2.57 µM
  TGI: 7.65 µM
MDA-MB-231 breast
  GI50: 4.94 µM
  TGI: 29.3 µM
OVCAR-5 ovarian
  GI50: 3.83 µM
  TGI: 15.1 µM
SNB-75 CNS
  GI50: 6.31 µM
  TGI: 28.1 µM
U251 CNS
  GI50: 3.83 µM
  TGI: 16.2 µM
UO-31 renal
  GI50: 3.48 µM
  TGI: 11 µM

## COc1cc(/C=C2\C(=O)Nc3ccc(F)cc32)cc(OC)c1OC
A549 NSCLC
  GI50: 51.8 µM
  TGI: > 100 µM
HS 578T breast
  GI50: 30.4 µM
  TGI: > 100 µM
M14 melanoma
  GI50: 63.5 µM
  TGI: > 100 µM
MALME-3M melanoma
  GI50: 29.6 µM
  TGI: > 100 µM
MDA-MB-231 breast
  GI50: 3.16 µM
  TGI: 36.3 µM
NCI-H23 lung
  GI50: 24 µM
  TGI: > 100 µM
OVCAR-5 ovarian
  GI50: > 100 µM
  TGI: > 100 µM
SNB-75 CNS
  GI50: 9.18 µM
  TGI: 79.3 µM
U251 CNS
  GI50: 13.5 µM
  TGI: 49.4 µM
UO-31 renal
  GI50: 11.9 µM
  TGI: > 100 µM

## CC(=O)Oc1ccc(Nc2c3ccccc3nc3ccccc23)cc1
A549 NSCLC
  GI50: 0.365 µM
  TGI: 1.87 µM
HS 578T breast
  GI50: 0.435 µM
  TGI: 3.19 µM
M14 melanoma
  GI50: 1.46 µM
  TGI: 3.7 µM
MALME-3M melanoma
  GI50: 1.31 µM
  TGI: 5.35 µM
MDA-MB-231 breast
  GI50: 1.7 µM
  TGI: 6.23 µM
NCI-H23 lung
  GI50: 1.17 µM
  TGI: 2.98 µM
OVCAR-5 ovarian
  GI50: 2.08 µM
  TGI: 6.75 µM
SNB-75 CNS
  GI50: 0.544 µM
  TGI: 5.08 µM
U251 CNS
  GI50: 1.55 µM
  TGI: 8.85 µM
UO-31 renal
  GI50: 0.693 µM
  TGI: 2.59 µM

## COC(=O)[C@@H](NC(=O)[C@@H](OC)[C@@H]1Cc2cc3cc(OC4CC(OC5CC(O)C(O)C(C)O5)C(O)C(C)O4)c(C)c(O)c3c(O)c2C(=O)[C@H]1OC1CC(OC2CC(OC3CC(C)(O)C(O)C(C)O3)C(O)C(C)O2)C(O)C(C)O1)C(C)C (stereo partly specified)
A549 NSCLC
  GI50: 0.141 µM
  TGI: > 32.5 µM
HS 578T breast
  GI50: 0.114 µM
  TGI: 1.39 µM
M14 melanoma
  GI50: 0.147 µM
  TGI: > 32.5 µM
MALME-3M melanoma
  GI50: 0.0763 µM
  TGI: 1.43 µM
MDA-MB-231 breast
  GI50: 0.192 µM
  TGI: 19.9 µM
NCI-H23 lung
  GI50: 0.144 µM
  TGI: 13.5 µM
OVCAR-5 ovarian
  GI50: 0.265 µM
  TGI: 10.8 µM
SNB-75 CNS
  GI50: 0.0849 µM
  TGI: 1.46 µM
U251 CNS
  GI50: 0.106 µM
  TGI: 1.6 µM
UO-31 renal
  GI50: 0.129 µM
  TGI: 4.4 µM

## COc1ccc(-c2cc(-c3cccn3C)c(C#N)c(N)n2)cc1OC
A549 NSCLC
  GI50: > 100 µM
  TGI: > 100 µM
HS 578T breast
  GI50: > 100 µM
  TGI: > 100 µM
MALME-3M melanoma
  GI50: > 100 µM
  TGI: > 100 µM
MDA-MB-231 breast
  GI50: 38.3 µM
  TGI: > 100 µM
NCI-H23 lung
  GI50: > 100 µM
  TGI: > 100 µM
OVCAR-5 ovarian
  GI50: > 100 µM
  TGI: > 100 µM
SNB-75 CNS
  GI50: 21.1 µM
  TGI: 70.9 µM
U251 CNS
  GI50: > 100 µM
  TGI: > 100 µM
UO-31 renal
  GI50: 98.3 µM
  TGI: > 100 µM

## CCN(CC)CC(C)(C)C(=O)/C=C/c1ccc(Cl)c(Cl)c1
A549 NSCLC
  GI50: 2.38 µM
  TGI: 4.88 µM
HS 578T breast
  GI50: 2.45 µM
  TGI: 5.94 µM
M14 melanoma
  GI50: 1.66 µM
  TGI: 3.39 µM
MALME-3M melanoma
  GI50: 1.8 µM
  TGI: 3.61 µM
MDA-MB-231 breast
  GI50: 2.06 µM
  TGI: 4.26 µM
NCI-H23 lung
  GI50: 1.9 µM
  TGI: 4.17 µM
OVCAR-5 ovarian
  GI50: 1.65 µM
  TGI: 3.49 µM
SNB-75 CNS
  GI50: 1.3 µM
  TGI: 2.93 µM
U251 CNS
  GI50: 1.71 µM
  TGI: 3.15 µM
UO-31 renal
  GI50: 1.32 µM
  TGI: 2.72 µM

## N#CC1(C2SCCS2=O)C2=C(C(=O)c3ccccc3C2=O)N2CCCC21 (stereo unspecified)
A549 NSCLC
  TGI: 6.26 µM
HS 578T breast
  TGI: 12.8 µM
M14 melanoma
  TGI: 2.77 µM
MALME-3M melanoma
  TGI: 1.27 µM
MDA-MB-231 breast
  TGI: 9.21 µM
NCI-H23 lung
  TGI: 3.51 µM
OVCAR-5 ovarian
  TGI: 9.39 µM
SNB-75 CNS
  TGI: 8.04 µM
U251 CNS
  TGI: 11.3 µM
UO-31 renal
  TGI: 14.2 µM

From PubChem BioAssay (NCI)
